Experimental data taken from ChEMBL document CHEMBL4402507, “Tyrosinase inhibitory study of flavonolignans from the seeds of Silybum marianum (Milk thistle)” (Bioorg Med Chem, 2019).
Calls of active or inactive are those of the source. The calls are words filed in the database; no cut-off is given here.

Tests used:
Tyrosinase [1] = target: T1, Tyrosinase (Agaricus bisporus, UniProt O42713); assay: Inhibition of diphenolase activity of mushroom tyrosinase assessed as reduction in dopachrome formation using L-DOPA substrate by UV-Vis spectrophotometry
T1 sequence (O42713 whole entry): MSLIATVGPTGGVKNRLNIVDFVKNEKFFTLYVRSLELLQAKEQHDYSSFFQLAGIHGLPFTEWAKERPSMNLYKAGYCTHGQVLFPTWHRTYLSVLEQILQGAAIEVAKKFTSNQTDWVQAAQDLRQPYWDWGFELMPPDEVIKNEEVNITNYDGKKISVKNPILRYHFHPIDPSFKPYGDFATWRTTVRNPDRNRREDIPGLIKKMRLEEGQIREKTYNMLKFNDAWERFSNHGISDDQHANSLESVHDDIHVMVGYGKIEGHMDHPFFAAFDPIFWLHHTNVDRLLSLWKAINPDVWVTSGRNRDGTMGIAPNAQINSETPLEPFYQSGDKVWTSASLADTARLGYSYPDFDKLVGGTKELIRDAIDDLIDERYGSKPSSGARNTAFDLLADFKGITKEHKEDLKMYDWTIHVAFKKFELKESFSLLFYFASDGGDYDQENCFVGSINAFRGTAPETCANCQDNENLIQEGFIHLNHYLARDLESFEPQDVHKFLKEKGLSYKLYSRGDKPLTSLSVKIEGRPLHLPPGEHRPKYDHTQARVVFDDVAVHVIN

Tyrosinase [2] = target: T1, Tyrosinase
[3] = target: T2, Tyrosinase (Agaricus bisporus) (UniProt O42713)
T2 sequence (whole entry): T1 sequence (O42713 whole entry)
Description: Inhibition of diphenolase activity of mushroom tyrosinase assessed as inhibition constant for enzyme-substrate-inhibitor complex by measuring reduction in dopachrome formation using L-DOPA substrate by UV-Vis spectrophotometry

Tyrosinase [4] = target: T1, Tyrosinase; remark: listed apart in the source
Description: Inhibition of monophenolase activity of mushroom tyrosinase assessed as inhibition constant for free enzyme-inhibitor complex by measuring reduction in dopachrome formation using L-Tyrosine substrate by UV-Vis spectrophotometry

Tyrosinase [5] = target: T1, Tyrosinase; remark: listed apart in the source
Description: Mixed type inhibition of diphenolase activity of mushroom tyrosinase assessed as reduction in dopachrome formation using L-DOPA substrate by UV-Vis spectrophotometry based Dixon plot analysis

[6] = target: T2, Tyrosinase (Agaricus bisporus); assay: Binding affinity to mushroom tyrosinase assessed as binding constant by fluorescence spectrophotometry
[7] = target: T2, Tyrosinase (Agaricus bisporus); assay: Inhibition of monophenolase activity of mushroom tyrosinase assessed as increase in lag period of monophenolase for oxidation of L-tyrosine substrate at 0.5 to 16 uM by UV-Vis spectrophotometry
[8] = target: T2, Tyrosinase (Agaricus bisporus); assay: Inhibition of monophenolase activity of mushroom tyrosinase assessed as reduction in steady state rate monophenolase activity for oxidation of L-tyrosine substrate at 0.5 to 16 uM by UV-Vis spectrophotometry
[9] = target: T2, Tyrosinase (Agaricus bisporus); remark: listed apart in the source
Description: Inhibition of monophenolase activity of mushroom tyrosinase assessed as inhibition constant for enzyme-substrate-inhibitor complex by measuring reduction in dopachrome formation using L-Tyrosine substrate by UV-Vis spectrophotometry

Tyrosinase [10] = target: T1, Tyrosinase; assay: Inhibition of monophenolase activity of mushroom tyrosinase assessed as reduction in dopachrome formation using L-Tyrosine substrate by UV-Vis spectrophotometry
[11] = target: T2, Tyrosinase (Agaricus bisporus); assay: Binding affinity to mushroom tyrosinase assessed as Stern-Volmer quenching constant by fluorescence spectrophotometry
Tyrosinase [12] = target: T1, Tyrosinase; remark: listed apart in the source
Description: Inhibition of diphenolase activity of mushroom tyrosinase assessed as inhibition constant for free enzyme-inhibitor complex by measuring reduction in dopachrome formation using L-DOPA substrate by UV-Vis spectrophotometry

Tyrosinase [13] = target: T1, Tyrosinase; remark: listed apart in the source
Description: Competitive type inhibition of monophenolase activity of mushroom tyrosinase assessed as reduction in dopachrome formation using L-Tyrosine substrate by UV-Vis spectrophotometry based Dixon plot analysis

Tyrosinase [14] = target: T1, Tyrosinase; remark: listed apart in the source
Description: Competitive type inhibition of diphenolase activity of mushroom tyrosinase assessed as reduction in dopachrome formation using L-DOPA substrate by UV-Vis spectrophotometry based Dixon plot analysis

[15] = target: T2, Tyrosinase (Agaricus bisporus); assay: Binding affinity to mushroom tyrosinase by fluorescence spectrophotometry
[16] = target: T2, Tyrosinase (Agaricus bisporus); assay: Inhibition of monophenolase activity of mushroom tyrosinase assessed as lag time period of monophenolase for oxidation of L-tyrosine substrate at 16 uM by UV-Vis spectrophotometry (reference value: […] secs)
[17] = target: T2, Tyrosinase (Agaricus bisporus); assay: Inhibition of monophenolase activity of mushroom tyrosinase assessed as reduction in N-acetyl-L-dopaquinone formation at 25 uM using N-acetyl-L-tyrosine substrate incubated up to 60 mins by HPLC analysis

| SMILES | IC50 (Tyrosinase [1]) [µM] | Ki (Tyrosinase [2]) [µM] | Kis [3] [µM] | Ki (Tyrosinase [4]) [µM] | Ki (Tyrosinase [5]) [µM] | KA [6] [×10⁶ L/mol] | inhibition [7] | inhibition [8] | Kis [9] [µM] | IC50 (Tyrosinase [10]) [µM] | KSV [11] [×10⁴ L/mol] | Ki (Tyrosinase [12]) [µM] | Ki (Tyrosinase [13]) [µM] | Ki (Tyrosinase [14]) [µM] | Activity [15] | TIME [16] [h] | inhibition [17] |
| --- | --- | --- | --- | --- | --- | --- | --- | --- | --- | --- | --- | --- | --- | --- | --- | --- | --- |
| COc1cc([C@@H]2Oc3c(O)cc(-c4oc5cc(O)cc(O)c5c(=O)c4O)cc3[C@H]2CO)ccc1O | 35.9 | 4.7 | 146 | 4.6 | 36.7 | 2.25 | Dose-dependent effect | Dose-dependent effect | 6.4 | 7.6 | 0.0634 | 38.3 |  |  |  |  |  |
| COc1cc([C@H]2Oc3cc(O)cc(O)c3C(=O)[C@@H]2O)ccc1O | 150 |  |  |  |  | 0.849 |  |  |  | 51.2 | 0.0222 |  | 20.5 | 73.4 |  |  |  |
| O=C1c2c(O)cc(O)cc2O[C@H](c2ccc(O)c(O)c2)[C@H]1O |  |  |  |  |  | 0.918 |  |  |  |  | 0.0492 |  |  |  |  |  |  |
| COc1cc(C2Oc3cc([C@H]4Oc5cc(O)cc(O)c5C(=O)[C@@H]4O)ccc3OC2CO)ccc1O (mixture of isomers) [SILIBININ] | 12.1 | 0.7 | 27.6 | 0.7 | 8.5 | 6.16 | Dose-dependent effect | Dose-dependent effect | 3.7 | 1.7 | 0.261 | 8.4 |  |  |  |  |  |
| O=C1c2c(O)cc(O)cc2O[C@H](c2ccc(O)cc2)[C@H]1O [DIHYDROKAEMPFEROL] | > 200 |  |  |  |  | 0.094 |  |  |  | 73.6 | 0.0199 |  | 42 |  | Dose-dependent effect |  |  |
| COc1cc([C@H]2Oc3ccc([C@H]4Oc5cc(O)cc(O)c5C(=O)[C@@H]4O)cc3O[C@@H]2CO)ccc1O [ISOSILYBIN A] | 16.7 | 1.1 | 29.5 | 1.1 | 12.4 | 6.31 | Dose-dependent effect | Dose-dependent effect | 3.2 | 2.1 | 0.267 | 12.3 |  |  | Dose-dependent effect | 0.0833 | Active |
| COc1cc([C@@H]2Oc3ccc([C@H]4Oc5cc(O)cc(O)c5C(=O)[C@@H]4O)cc3O[C@H]2CO)ccc1O [ISOSILYBIN B] | 19.8 | 4.2 | 25.2 | 4.3 | 11.6 | 2.42 | Dose-dependent effect | Dose-dependent effect | 8 | 4.9 | 0.0882 | 12.7 |  |  |  |  |  |
| COc1cc([C@@H]2Oc3c(O)cc([C@H]4Oc5cc(O)cc(O)c5C(=O)[C@@H]4O)cc3[C@H]2CO)ccc1O [SILICRISTIN A] | 28.8 | 2.1 | 37.3 | 2.1 | 15.4 | 3.55 | Dose-dependent effect | Dose-dependent effect | 2.9 | 3.2 | 0.192 | 15.2 |  |  |  |  |  |
| COc1cc([C@H]2Oc3c(O)cc([C@H]4Oc5cc(O)cc(O)c5C(=O)[C@@H]4O)cc3[C@@H]2CO)ccc1O [SILICRISTIN B] | 44.9 | 2.8 | 91.3 | 2.8 | 35.5 | 2.88 | Dose-dependent effect | Dose-dependent effect | 14 | 4.5 | 0.109 | 34.7 |  |  |  |  |  |
| COc1cc([C@@H]2[C@H]3CO[C@@]4(O)C(=O)[C@@H]2C=C([C@H]2Oc5cc(O)cc(O)c5C(=O)[C@@H]2O)[C@@H]34)ccc1O [SILIDIANIN] | 16.5 | 1.7 | 90.8 | 2.1 | 14.9 | 5.81 | Dose-dependent effect | Dose-dependent effect | 2.3 | 2.6 | 0.193 | 15 |  |  |  |  |  |
